# From PMC5309220, “Screening for Small Molecule Inhibitors of Statin-Induced APP C-terminal Toxic Fragment Production” (Frontiers in Pharmacology, 2017)
# Like-named read-outs stand apart in the source and are kept apart here.
# Experiments:
# [1] = tested on: cerivastatin-induced APPΔC31 production in CHO-7W cells; assay: APPΔC31 ELISA validation assay, cerivastatin-induced; format: cell-based, Chinese hamster; conditions: 24 h; for inhibition of APPΔC31 production (in words) / IC50: CHO-7W; for inhibition of APPΔC31 production (in words): thapsigargin 0.033-0.3 μM, 2,5-Di-tert-butylhydroquinone 1 and 10 μM; for APPΔC31 Inh. (mean %): CHO-7W cells, test concentration not given; for IC50: Cricetulus griseus, read-out: IC50 (E), APPΔC31 inhibition
# Description: The APPΔC31 ELISA developed in partnership with Enzo Life Sciences (ADI-900-227) follows a standard sandwich ELISA design wherein a monoclonal N-terminal APP-specific antibody is used to coat the wells of the microtiter plate (capture antibody) and the anti-APPΔC31 cleavage site-specific polyclonal antibody serves as the detection antibody. An HRP-conjugated secondary antibody is then added and a colorimetric signal generated by enzymatic conversion of the tetramethylbenzidine (TMB) substrate. Protein levels were first determined using a colorimetric coomassie assay (Coomassie Plus, Thermo).
# A subset of hits from our HTS was validated in a secondary assay. […] Thapsigargin also acts as a sarco/endoplasmic reticulum calcium ATPase (SERCA) inhibitor. Therefore, another SERCA inhibitor, 2,5-Di-tert-butylhydroquinone, was also added to the testing. In this secondary assay, CHO-7W cells were cultured as described above and plated into 24-well dishes at ∼200K/well. […] These hits were selected for their potency in primary screen, their structural features, their known activities, and availability of compound for additional testing. There were cerivastatin-only (negative control), + QVD-OPh (positive control), and for viability, vehicle-only (negative) controls. Cells were harvested by removing the media to a tube, adding […] trypsin to detach cells then neutralizing with media. […] Cells were centrifuged at 5000 rpm (2300 × g) for 5 min. Cell pellets were frozen until use. Forty μL cold RIPA buffer plus complete protease inhibitors (Roche) was added to each pellet and the pellets were reconstituted by pipetting up and down, incubating on ice for 30 min, vortexing, and centrifugation as above. Cell lysate supernatants were then assayed by APPΔC31 ELISA as described above. For most compounds, multiple/repeat studies were performed and two wells used for each condition. Statistical comparison was performed using one-way ANOVA for multiple comparisons, with a Dunnett post hoc test to compare each condition to the control. Further dose-response studies were performed on select compounds.
# CHO-7W cells [2] = conditions: with 10 μM cerivastatin
# [3] = tested on: APPΔC31 production in CHO-7W cells; assay: Statin induction of APPΔC31, ELISA; format: cell-based, Chinese hamster; conditions: 24 h
# Description: An HRP-conjugated secondary antibody is then added and a colorimetric signal generated by enzymatic conversion of the tetramethylbenzidine (TMB) substrate. Protein levels were first determined using a colorimetric coomassie assay (Coomassie Plus, Thermo).
# APPΔC31 was determined in cell lysates by ELISA.
# [4] = tested on: cerivastatin-induced APPΔC31 in CHO-7W cells; assay: APPΔC31 AlphaLISA dose-response, cerivastatin-induced; format: cell-based, Chinese hamster; conditions: 24 h; for IC50: Cricetulus griseus
# Description: The APPΔC31 AlphaLISA assay (Figures 2C–E) was run directly in the plate with the cell lysate as described above in “AlphaLISA to detect APPΔC31.” APPΔC31 levels were measured using the Envision plate reader and data were normalized to DMSO (100% APPΔC31 production) and Q-VD-OPh (MP Biomedicals) pan-caspase inhibitor at 30 μM (0%); these controls were present on each plate. In addition, some compounds of interest were further analyzed in a dose-response curve to determine IC50 values.
# The broad-spectrum pan-caspase inhibitor Q-VD-OPh served as the positive control.
# Lysates were prepared and APPΔC31 determined by ELISA. (B) CHO-7W cells were treated with 10 μM cerivastatin plus increasing doses of caspase and MEK inhibitors for 24 h. Lysates were prepared and APPΔC31 determined by AlphaLISA. Click here for additional data file.
# caspase 8 = conditions: potency stated for the inhibitor, no reference given; cited from earlier work
# [5] = PAMPA / immobilized artificial membrane (IAM.PC.DD2) chromatography; format: in vitro ADME
# sAPPα in CHO-7W cultures = assay: sAPPα ELISA in cell media; format: cell-based, Chinese hamster; conditions: QVD, Sp, 3′F-Sp at 10, 30, and 30 mM, respectively (so in the source), with 10 μM cerivastatin, 24 h, vs CS alone, n = 2
# Description: (§1) In an additional study (Supplementary Figure S5A), measurement of the α secretase fragment of full length (FL) APP – soluble APP alpha (sAPPα) – was performed using cell media by ELISA (IBL). Furthermore, in two studies (Supplementary Figures S5B,C), total protein levels in CHO-7W cell lysates were determined by Coomassie Plus protein assay (Pierce).
# (§2) Supplementary file Data_Sheet_1.docx: FIGURE S5 Effect of lead compounds on protein concentration and sAPPα. […] (B) Total protein from lysates of CHO-7W cells treated with either 30 μM QVD or 10 μM Sp alone for 24 h was similar to the vehicle control (n = 1). (C) Total protein from CHO-7W lysates treated with 10 μM CS alone or in combination with QVD, Sp, or 3′F-Sp at the concentrations shown increased (n = 1). Statistical analysis was performed using one-way ANOVA and Dunnett post-test for comparison to the 10 μM CS control (^∗∗p < 0.001, ^∗∗∗p < 0.0001). Click here for additional data file.
# CHO-7W cells [6] = assay: Total protein in CHO-7W cell lysates (Coomassie Plus); format: cell-based, Chinese hamster; conditions: n = 1; for effect on protein concentration in lysates, compound alone (in words): QVD alone at 30 μM, spiperone alone at 10 μM, 24 h, vs vehicle; for effect on total protein concentration with cerivastatin (in words): QVD, spiperone, 3′fluorobenzylspiperone at 30, 10, and 10 μM, respectively, with 10 μM cerivastatin
# Description: as §1, §2
# [7] = tested on: cerivastatin-induced APPΔC31 in CHO-7W cells; assay: APPΔC31 immunoblot of CHO-7W cell lysates; format: cell-based, Chinese hamster; conditions: compound at 30 μM, 10 μM cerivastatin, 24 h
# Description: For immunoprecipitation, approximately 300 μg cell lysate supernatants were brought to 250 μL with cold RIPA + PI buffer in microfuge tubes. One μL of 6E10 APP antibody (Covance) was added and the mixture was rotated overnight in a cold room. The next day, 25 μL of protein A/G beads (Santa Cruz Biotech) were added and the samples were rotated for 1.5 h in the cold room. The beads were then centrifuged down and washed four times with cold PBS. Forty μL 1x LDS sample buffer + DTT was added to the pellets, which were heated to 70°C for 10 min, vortexed and centrifuged. Supernatants were loaded onto Nupage 4–12% Bis-Tris gels (Life Technologies) for electrophoresis and were then transferred to 0.2 μm PVDF membrane for immunoblotting with the anti-APPΔC31 antibody.
# (A) CHO-7W cells were treated with 10 μM cerivastatin (CS) along with varying concentrations of Q-VD-OPh (QVD) for 24 h. Cell lysates were prepared and immunoprecipitated with anti-APP (6E10) overnight at 4°C and then incubation with Protein A/G beads (Santa Cruz Biotech). The resulting pellets were incubated, electrophoresed using Nupage 4–12% Bis-Tris gels (Life Technologies) and the 0.2 μm PVDF membrane probed with anti-APPΔC31. (B) CHO-7W cells were treated with increasing concentrations of CS or 10 μM CS together with increasing concentrations of 3′-fluorobenzylspiperone maleate (3′-F-Sp) or 30 μM QVD for 24 h. […]
# [8] = In vivo pharmacokinetic analysis of spiperone; set-up: species or system mice (C57B6)
# Description: As PAMPA is merely a predictive analysis of brain permeability, a pharmacokinetic (PK) study with spiperone was performed. […] Another 5 mice were injected intraperitoneally (IP) at the same dose. One mouse was euthanized from each dosing route group at 1, 2, 4, 6, and 8 h. This is done by ketamine/xylazine over- anesthesia followed by blood collection for plasma isolation by cardiac puncture, and transcardial perfusion of tissue with saline to remove residual blood from the brain. Both plasma and brain tissue were sent to Integrated Analytical Solutions (IAS, Berkeley, CA, USA) for compound level analysis using an LC-MS-MS method.
# [9] = low concentrations (thapsigargin 0.033-0.3 μM, 2,5-Di-tert-butylhydroquinone 1 and 10 μM)
# [10] = (E) ELISA, cerivastatin-induced
# [11] = AlphaLISA dose-response (Figure 5C), cerivastatin-stimulated
# [12] = dose-response curves, 10 μM cerivastatin, AlphaLISA
smiles,measurement,setting,value
"CC(C)(C)c1cc(O)c(C(C)(C)C)cc1O [2,5-Di-tert-butylhydroquinone]",inhibition of APPΔC31 production (in words),[1]; 10 μM cerivastatin,very effective
same,cell survival rescue (in words),CHO-7W cells [2]; [9],highest cell survival
CC(C)c1c(C(=O)Nc2ccccc2)c(-c2ccccc2)c(-c2ccc(F)cc2)n1CC[C@@H](O)C[C@@H](O)CC(=O)O [Atorvastatin],induction of APPΔC31 (in words),"[3]; statins at 1, 5 and 10 μM",much less effective
FC(F)(F)c1cccc(-c2csc(C3COc4ccccc4O3)n2)c1 (centres unmarked) [Caspase Inhibitor X],inhibition of cerivastatin-induced APPΔC31 (in words),"[4]; highest concentration tested (30 μM), 10 μM cerivastatin, AlphaLISA",somewhat effective
same,IC50,caspase 8,2.7 µM
O=c1c(O)c(-c2ccc(O)cc2)oc2cc(O)cc(O)c12 [Kaempferol],APPΔC31 Inh. (mean %),[1]; 10 μM cerivastatin,65%
same,IC50,[1]; [10],> 10 µM
O=c1[nH]c2ccccc2n1C1CCN(CCCC(c2ccc(F)cc2)c2ccc(F)cc2)CC1 [Pimozide],% Min (APPΔC31 dose-response),[4]; [11],19%
same,IC50,"[4]; (A) AlphaLISA, cerivastatin-induced, read-out: IC50 (A), APPΔC31 inhibition",3.6 µM
same,APPΔC31 Inh. (mean %),[1]; 10 μM cerivastatin,98%
same,KIAM (IAM capacity factor),"[5]; IAM.PC.DD2 column, water/methanol gradient",3.3
same,cell survival rescue (in words),"CHO-7W cells [2]; at 30 μM, among hits from HTS",greatest cell survival rescue effects
"CC(C)C(NC(=O)c1ccc2ccccc2n1)C(=O)NC(CC(=O)O)C(=O)COc1c(F)cccc1F (centres unmarked) [QVD-OPh, Q-VD-OPh]",effect on sAPPα (in words),sAPPα in CHO-7W cultures,increased sAPPα
same,"effect on protein concentration in lysates, compound alone (in words)",CHO-7W cells [6],did not lower protein concentration
same,effect on total protein concentration with cerivastatin (in words),CHO-7W cells [6],increased total protein concentration
same,effect on CS-induced APPΔC31 by immunoblot (in words),[7],eliminated the cerivastatin-induced APPΔC31 increase
same,% Min (APPΔC31 dose-response),[4]; [11],0%
same,IC50,"[4]; AlphaLISA dose-response (Figure 5C), cerivastatin-stimulated, read-out: IC50, APPΔC31 inhibition",7.5 µM
same,effect on simvastatin-induced APPΔC31 increase (in words),[3]; 30 μM inhibitor plus 5 μM simvastatin,prevented 5 μM simvastatin-induced APPΔC31 increases
same,APPΔC31 Inh. (mean %),[1]; 10 μM cerivastatin,95%
same,IC50,"[1]; ELISA, 10 μM cerivastatin",7.5 µM
CO[C@H]1C[C@@H]2CC[C@@H](C)[C@@](O)(O2)C(=O)C(=O)N2CCCC[C@H]2C(=O)O[C@H]([C@H](C)C[C@@H]2CC[C@@H](O)[C@H](OC)C2)CC(=O)[C@H](C)/C=C(\C)[C@@H](O)[C@@H](OC)C(=O)[C@H](C)C[C@H](C)/C=C/C=C/C=C/1C [Rapamycin],APPΔC31 Inh. (mean %),[1]; 10 μM cerivastatin,99%
same,IC50,[1]; [10],> 10 µM
same,cell survival rescue (in words),"CHO-7W cells [2]; at 30 μM, among hits from HTS",greatest cell survival rescue effects
Oc1ccc(-c2nc(-c3ccncc3)c(-c3ccc(F)cc3)[nH]2)cc1 [SB202190],APPΔC31 Inh. (mean %),[1]; 10 μM cerivastatin,58%
same,IC50,[1]; [10],> 10 µM
Cn1cc(C2=C(c3ccc(Cl)cc3Cl)C(=O)NC2=O)c2ccccc21 [SB216763],APPΔC31 Inh. (mean %),[1]; 10 μM cerivastatin,54%
same,IC50,[1]; [10],> 10 µM
N#C/C(=C(/N)Sc1ccc(N)cc1)c1ccccc1C(F)(F)F [SL327],inhibition of cerivastatin-induced APPΔC31 (in words),[4]; [12],ineffective
O=C(CCCN1CCC2(CC1)C(=O)NCN2c1ccccc1)c1ccc(F)cc1 [Spiperone],effect on sAPPα (in words),sAPPα in CHO-7W cultures,increased sAPPα
same,"effect on protein concentration in lysates, compound alone (in words)",CHO-7W cells [6],did not lower protein concentration
same,effect on total protein concentration with cerivastatin (in words),CHO-7W cells [6],increased total protein concentration
same,% Min (APPΔC31 dose-response),[4]; [11],23%
same,Kp,"[8]; male, C57B6, brain and plasma, other: subcutaneous and intraperitoneal (both routes), 0.25 mg/mouse, SQ and IP routes, read-out: brain:plasma ratio",~0.5
same,Cmax,"[8]; male, C57B6, brain, mouse, intraperitoneal (IP), 10 mg/kg, n = 1 per time point, read-out: peak brain level (Cmax)",~205 ng/g
same,time of peak brain level,"[8]; mouse, IP injection at 10 mg/kg",1 h
same,time of peak brain level,"[8]; mouse, both the subcutaneous and intraperitoneal routes",1 h
same,peak brain level,"[8]; mouse, subcutaneous, 50 μL of 5 mg/mL in DMSO, n = 1 per time point",~70 ng/g
same,BBB Penetration Prediction,"[5]; from KIAM/MW^4 x 10^10, cut-off 0.85",high (If KIAM/MW^4x10^10 > 0.85 the BBB penetration is predicted to be high)
same,cell survival rescue (in words),"CHO-7W cells [2]; at 30 μM, among hits from HTS",greatest cell survival rescue effects
CC/C(=C(\c1ccccc1)c1ccc(OCCN(C)C)cc1)c1ccccc1 [Tamoxifen],APPΔC31 Inh. (mean %),[1]; 10 μM cerivastatin,56%
C/C=C(/C)C(=O)O[C@H]1C(C)=C2[C@H]([C@@H]1OC(=O)CCCCCCC)[C@@](C)(OC(C)=O)C[C@H](OC(=O)CCC)[C@@]1(O)[C@H]2OC(=O)[C@@]1(C)O [Thapsigargin],APPΔC31 Inh. (mean %),[1]; 10 μM cerivastatin,97%
same,inhibition of APPΔC31 production (in words),[1]; 10 μM cerivastatin,remarkably potent inhibitor
same,IC50,[1]; [10],0.077 µM
same,cell survival rescue (in words),CHO-7W cells [2]; [9],highest cell survival
CS/C(N)=C(C#N)/C(C#N)=C(\N)SC [U0124],inhibition of cerivastatin-induced APPΔC31 (in words),[4]; [12],ineffective
N#CC(=C(/N)Sc1ccccc1N)/C(C#N)=C(/N)Sc1ccccc1N [U0126],reduction of APPΔC31,"[4]; from 10 to 50 μM, 10 μM cerivastatin, AlphaLISA",~25%
